# According to patent US7417027B2, “Linear and cyclic melanocortin receptor-specific peptides” (Palatin Technologies, Inc., priority 2001, dated 2008):
# pKi: −log10 of the molar value. Non-standard residues stand in square brackets, D forms with d. Residues, ends and D or L forms follow the SMILES beside them. *: point of attachment. dPhe(4-Cl) = N[C@H](Cc1ccc(Cl)cc1)C(=O)O; d2Nal = N[C@H](Cc1ccc2ccccc2c1)C(=O)O; Nle = CCCC[C@H](N)C(=O)O; Ahp = NCCCCCCC(=O)O; Bn = c1ccc(C*)cc1
# Experiments:
# MC1-R = MC1-R (Mus musculus, UniProt Q01727); experiment: Competitive inhibition binding assay, 125I-NDP-alpha-MSH, B-16 mouse melanoma cell membranes; settings: for percent inhibition of 125I-NDP-alpha-MSH binding, MC1-R (B-16): B-16 mouse melanoma cell membranes, 0.4 nM 125I-NDP-alpha-MSH, mean of triplicate, peptide concentration not given; for pKi: B-16 cells, read-out: Ki MC-1 B-16; for MC1-R (B-16) inhibition of 125I-NDP-alpha-MSH binding: peptide conc. 1 μM
# hMC5-R = molecular target: T1, hMC5-R (Homo sapiens, UniProt P33032); experiment: Competitive inhibition binding assay, 125I-NDP-alpha-MSH, hMC5-R membranes; settings: for percent inhibition of 125I-NDP-alpha-MSH binding, MC5-R: hMC5-R membranes, 0.4 nM 125I-NDP-alpha-MSH, mean of triplicate, peptide concentration not given; for pKi: membranes, read-out: Ki MC-5 Mem
# T1 construct: expressed in transfected cells
# MC4-R [1] = molecular target: T2, MC4-R (Homo sapiens, UniProt P32245); experiment: Competitive inhibition binding assay, 125I-NDP-alpha-MSH, hMC4-R membranes; design: expressed in transfected cells; settings: for percent inhibition of 125I-NDP-alpha-MSH binding, MC4-R: hMC4-R membranes, 0.4 nM 125I-NDP-alpha-MSH, mean of triplicate, peptide concentration not given; for pKi: membranes, read-out: Ki MC-4 Mem
# hMC3-R = molecular target: T3, hMC3-R (Homo sapiens, UniProt P41968); experiment: Competitive inhibition binding assay, 125I-NDP-alpha-MSH, hMC3-R membranes; settings: for percent inhibition of 125I-NDP-alpha-MSH binding, MC3-R: hMC3-R membranes, 0.4 nM 125I-NDP-alpha-MSH, mean of triplicate, peptide concentration not given; for pKi: membranes, read-out: Ki MC-3 Mem
# T3 construct: expressed in transfected cells
# MC4-R [2] = molecular target: T2, MC4-R; experiment: Functional evaluation: intracellular cAMP accumulation in HEK-293 cells expressing MC4-R (agonist/antagonist status); assay type: cell-based; design: expressed in transfected cells; host or cells: HEK-293; settings: with or without alpha-MSH, 1 hour at 37° C
# Procedure: The Ki (nM) of certain peptides were determined, as was the agonist/antagonist status with respect to MC4-R. Functional evaluation of peptides at MC4-R was performed by measuring the accumulation of intracellular cAMP in HEK-293 cells expressing MC4-R. Antagonistic activity was determined by measuring the inhibition of α-MSH-induced cAMP levels following exposure to the compounds. Cells, suspended in Earle's Balanced Salt Solution containing 10 mM HEPES, pH 7.5, 5 mM MgCl2, 1 mM glutamine, 0.1% albumin and 0.6 mM 3-isobutyl-1-methyl-xanthine, a phosphodiesterase inhibitor, were plated in 96 well plates at a density of 0.5×10^5 cells per well. Cells were incubated with the test peptides in the presence or absence of α-MSH for 1 hour at 37° C. cAMP levels were measured by EIA (Amersham) in the cell lysates. Data analysis and EC50 values were determined using nonlinear regression analysis with Prism Graph-Pad software.
# T3 sequence (P41968 whole entry): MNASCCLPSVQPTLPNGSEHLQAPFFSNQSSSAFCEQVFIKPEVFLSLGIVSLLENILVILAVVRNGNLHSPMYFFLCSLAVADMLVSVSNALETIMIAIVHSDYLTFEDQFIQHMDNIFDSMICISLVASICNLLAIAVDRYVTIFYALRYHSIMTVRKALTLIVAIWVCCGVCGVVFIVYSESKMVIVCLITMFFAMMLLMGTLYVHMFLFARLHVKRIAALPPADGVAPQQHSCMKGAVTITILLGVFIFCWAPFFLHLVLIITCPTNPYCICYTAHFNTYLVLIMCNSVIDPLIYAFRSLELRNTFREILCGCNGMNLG
# Sequence of MC1-R (Q01727 whole entry): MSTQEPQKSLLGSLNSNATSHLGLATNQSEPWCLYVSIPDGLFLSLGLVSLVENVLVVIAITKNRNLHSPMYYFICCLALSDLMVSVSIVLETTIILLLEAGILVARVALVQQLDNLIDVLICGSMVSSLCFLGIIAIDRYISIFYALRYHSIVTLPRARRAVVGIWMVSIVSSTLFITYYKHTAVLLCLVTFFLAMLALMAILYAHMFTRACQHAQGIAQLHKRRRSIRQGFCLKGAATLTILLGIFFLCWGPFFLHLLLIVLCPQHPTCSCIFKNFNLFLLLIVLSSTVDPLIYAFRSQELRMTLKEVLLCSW
# T2 sequence (P32245 whole entry): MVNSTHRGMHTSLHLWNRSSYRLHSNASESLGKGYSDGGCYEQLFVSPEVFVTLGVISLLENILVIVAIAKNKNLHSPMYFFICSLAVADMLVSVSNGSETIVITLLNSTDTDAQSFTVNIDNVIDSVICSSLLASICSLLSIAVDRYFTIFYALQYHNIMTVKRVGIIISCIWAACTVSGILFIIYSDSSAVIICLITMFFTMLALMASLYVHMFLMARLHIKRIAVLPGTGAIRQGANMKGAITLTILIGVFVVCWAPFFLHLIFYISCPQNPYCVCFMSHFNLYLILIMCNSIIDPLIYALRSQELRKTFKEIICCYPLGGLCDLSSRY
# T1 sequence (P33032 whole entry): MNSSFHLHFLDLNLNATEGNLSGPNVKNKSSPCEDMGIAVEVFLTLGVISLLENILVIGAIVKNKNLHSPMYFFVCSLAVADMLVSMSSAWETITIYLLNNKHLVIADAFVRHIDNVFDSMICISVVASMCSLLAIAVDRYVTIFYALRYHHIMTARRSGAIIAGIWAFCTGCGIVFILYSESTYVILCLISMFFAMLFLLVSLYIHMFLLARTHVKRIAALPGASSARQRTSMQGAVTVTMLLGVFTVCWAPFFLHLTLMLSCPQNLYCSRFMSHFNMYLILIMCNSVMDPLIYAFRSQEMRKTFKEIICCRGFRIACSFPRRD
Compound,"percent inhibition of 125I-NDP-alpha-MSH binding, MC1-R (B-16) (MC1-R) [%]","percent inhibition of 125I-NDP-alpha-MSH binding, MC5-R (hMC5-R) [%]","percent inhibition of 125I-NDP-alpha-MSH binding, MC4-R (MC4-R [1]) [%]","percent inhibition of 125I-NDP-alpha-MSH binding, MC3-R (hMC3-R) [%]",also measured
2′-naphthylacetyl-D-Phe(4-Cl)-Arg-Trp-NH2,,58,,,
2′-naphthylacetyl-Inp-D-Phe(4-Cl)-Arg-Trp-NH2,,,58,,
2′-naphthylacetyl-Tle-D-Phe(4-Cl)-Arg-Trp-NH2,67,,,,
2′-naphthylacetyl-beta-Ala-D-Nal 2-Arg-Trp-NH2,,,,58,
3′-CF3phenyl-acetyl-Ala-D-Phe(4-Cl)-Arg-Trp-NH2,,,,101,
3′-CF3phenylacetyl-Ala-D-Phe(4-Cl)-Lys-Trp-NH2,,67,,,
4′-biphenyl-acetyl-Ala-D-Phe(4-Cl)-Arg-Trp-NH2,0,37,88,54,
4′-phenylbutylaminocarbonyl-D-Phe(4-Cl)-Arg-Trp-NH2,,,45,,
7′-amino-heptanoyl-Ser(Bzl)-D-Phe(4-Cl)-Arg-2′-(4″-methylphenyl)ethylamide,,,,67,
7′-amino-heptanoyl-Ser(Bzl)-D-Phe(4-Cl)-Arg-4-phenyl-piperidine-4-carbonamide,5,25,13,2,
7′-amino-heptanoyl-Ser(Bzl)-D-Phe(4-Cl)-Arg-Trp-OH,,,67,,
7′-amino-heptanoyl-Ser(Bzl)-D-Phe(4-Cl)-alpha-(N-amidino-4′-piperidine)Gly-Trp-NH2,3,16,26,8,
N=C(N)NCCC[C@H](NC(=O)[C@@H](Cc1ccc2ccccc2c1)NC(=O)[C@H](COCc1ccccc1)NC(=O)CCCCCCN)C(=O)N[C@@H](Cc1c[nH]c2ccccc12)C(N)=O [7′-amino-heptanoyl-Ser(Bzl)-D-Nal 2-Arg-Trp-NH2] (H-[Ahp]S(Bn)[d2Nal]RW-NH2),4,82,99,93,HEK-293 (MC4-R) cells Classification (MC4-R [2]): Antagonist; pKi (hMC5-R): 6.99; pKi (MC4-R [1]): 8.40; pKi (MC1-R): 5.73; pKi (hMC3-R): 7.30
C[C@H](NC(=O)[C@H](Cc1c[nH]c2ccccc12)NC(=O)[C@H](CCCNC(=N)N)NC(=O)[C@@H](Cc1ccc(Cl)cc1)NC(=O)[C@H](COCc1ccccc1)NC(=O)CCCCCCN)C(N)=O [7′-amino-heptanoyl-Ser(Bzl)-D-Phe(4-Cl)-Arg-Trp-Ala-NH2] (H-[Ahp]S(Bn)[dPhe(4-Cl)]RWA-NH2),,79,100,93,HEK-293 (MC4-R) cells Classification (MC4-R [2]): Agonist; pKi (hMC5-R): 6.95; pKi (MC4-R [1]): 8.70; pKi (MC1-R): 6.85; pKi (hMC3-R): 7.43
N=C(N)NCCC[C@H](NC(=O)[C@@H](Cc1ccc(Cl)cc1)NC(=O)[C@H](COCc1ccccc1)NC(=O)CCCCCCN)C(=O)N[C@@H](Cc1c[nH]c2ccccc12)C(=O)N[C@@H](CC(=O)O)C(N)=O [7′-amino-heptanoyl-Ser(Bzl)-D-Phe(4-Cl)-Arg-Trp-Asp-NH2] (H-[Ahp]S(Bn)[dPhe(4-Cl)]RWD-NH2),,48,98,73,HEK-293 (MC4-R) cells Classification (MC4-R [2]): Agonist; pKi (hMC5-R): 6.22; pKi (MC4-R [1]): 8.05; pKi (MC1-R): 6.12; pKi (hMC3-R): 6.72
N=C(N)NCCC[C@H](NC(=O)[C@@H](Cc1ccc(Cl)cc1)NC(=O)[C@H](COCc1ccccc1)NC(=O)CCCCCCN)C(=O)N[C@@H](Cc1c[nH]c2ccccc12)C(=O)N[C@@H](CC(=O)O)C(=O)N[C@@H](Cc1ccccc1)C(N)=O [7′-amino-heptanoyl-Ser(Bzl)-D-Phe(4-Cl)-Arg-Trp-Asp-Phe-NH2] (H-[Ahp]S(Bn)[dPhe(4-Cl)]RWDF-NH2),34,54,100,37,HEK-293 (MC4-R) cells Classification (MC4-R [2]): Agonist; pKi (hMC5-R): 6.41; pKi (MC4-R [1]): 7.92; pKi (MC1-R): 6.57; pKi (hMC3-R): 6.50
Ac-[Nle]AH[dF]RCW-NH2,,,,,MC1-R (B-16) inhibition of 125I-NDP-alpha-MSH binding (MC1-R): 101%
Ac-[Nle]AH[dF]RW-NH2,,,,,MC1-R (B-16) inhibition of 125I-NDP-alpha-MSH binding (MC1-R): 101%
Ac-[Nle]AH[dF]RWC-NH2,,,,,MC3-R inhibition of 125I-NDP-alpha-MSH binding (hMC3-R; peptide conc. 1 μM): 58%

# The next lines start with results.
"percent inhibition of 125I-NDP-alpha-MSH binding, MC1-R (B-16) (MC1-R) [%]","percent inhibition of 125I-NDP-alpha-MSH binding, MC5-R (hMC5-R) [%]","percent inhibition of 125I-NDP-alpha-MSH binding, MC4-R (MC4-R [1]) [%]","percent inhibition of 125I-NDP-alpha-MSH binding, MC3-R (hMC3-R) [%]",Compound,also measured
45,,,,2′-naphthylacetyl-Ala-D-Phe(4-Cl)-Arg-Trp-NH2,
,-6,,,"3′,4′-Cl2phenylacetyl-Ala-D-Phe(4-Cl)-Arg-2′-(4″-methylphenyl)ethylamide",
45,,,,"3′,4′-Cl2phenylacetyl-Ala-D-Phe(4-Cl)-Lys-Trp-NH2",
58,,,,7′-amino-heptanoyl-Ala-D-Phe(4-Cl)-Arg-Trp-NH2,
,-6,,,"7′-amino-heptanoyl-Ser(Bzl)-D-Phe(4-Cl)-Arg-2′,4′-dichlorobenzylamide",
,-2,,,7′-amino-heptanoyl-Ser(Bzl)-D-Phe(4-Cl)-Arg-Histamide,
45,,,,7′-amino-heptanoyl-Ser(Bzl)-D-Phe(4-Cl)-Arg-Tic-NH2,
,,67,,7′-amino-heptanoyl-Ser(Bzl)-D-Phe(4-Cl)-Arg-Trp-Asp-OH,
-8,82,100,86,N=C(N)NCCC[C@H](NC(=O)[C@@H](Cc1ccc2ccccc2c1)NC(=O)[C@H](COCc1ccccc1)NC(=O)CCCCCCN)C(=O)N[C@H](Cc1c[nH]c2ccccc12)C(N)=O [7′-amino-heptanoyl-Ser(Bzl)-D-Nal 2-Arg-D-Trp-NH2] (H-[Ahp]S(Bn)[d2Nal]R[dW]-NH2),HEK-293 (MC4-R) cells Classification (MC4-R [2]): Antagonist; pKi (hMC5-R): 7.05; pKi (MC4-R [1]): 8.22; pKi (MC1-R): 5.89; pKi (hMC3-R): 7.15
67,,,,Ph-(CH2)2NH-CO(CH2)2CO-D-Phe(4-Cl)-Arg-Trp-NH2,
